# In US20230085307A1, “PYRIDAZINONE COMPOUND AND HERBICIDE” (NISSAN CHEMICAL CORPORATION, priority 2019, published 2023):
# Experiments:
# green foxtail [1] = assay: Test Example 5: herbicidal effect by foliage application, plastic box (Table 20, symbol G); assay type: in vivo, green foxtail (Setaria viridis)
# In short: (§1)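 Post-emergence foliar test in sterilized diluvial soil. Compound applied as water-diluted emulsion at a predetermined rate to 14-day-old plants; evaluation at three weeks.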
# southern crabgrass [2] = assay: Test Example 4: herbicidal effect by soil treatment (Table 19, symbol F); assay type: in vivo, southern crabgrass (Digitaria ciliaris)
# In short: (§2)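 Emulsion of test compound, water-diluted to predetermined amount, sprayed on soil after sowing (seed depth ~1.5 cm, sterilized diluvial soil). Greenhouse, 25–30° C. Effect graded at three weeks post-spray.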
# barnyard grass [3] = assay: Test Example 4: herbicidal effect by soil treatment (Table 19, symbol H); assay type: in vivo, barnyard grass (Echinochloa crus-galli)
# In short: as §2
# windgrass [4] = assay: Test Example 4: herbicidal effect by soil treatment (Table 19, symbol L); assay type: in vivo, windgrass (Apera spica-venti)
# In short: as §2
# blackgrass [5] = assay: Test Example 4: herbicidal effect by soil treatment (Table 19, symbol J); assay type: in vivo, blackgrass (Alopecurus myosuroides)
# In short: as §2
# wild oat [6] = assay: Test Example 4: herbicidal effect by soil treatment (Table 19, symbol I); assay type: in vivo, wild oat (Avena fatua)
# In short: as §2
# barnyard grass [7] = assay: Test Example 5: herbicidal effect by foliage application, plastic box (Table 20, symbol H); assay type: in vivo, barnyard grass (Echinochloa crus-galli)
# In short: as §1
# lambsquarters [8] = assay: Test Example 5: herbicidal effect by foliage application, plastic box (Table 20, symbol O); assay type: in vivo, lambsquarters (Chenopodium album)
# In short: as §1
# green foxtail [9] = assay: Test Example 4: herbicidal effect by soil treatment (Table 19, symbol G); assay type: in vivo, green foxtail (Setaria viridis)
# In short: as §2
# Italian ryegrass [10] = assay: Test Example 4: herbicidal effect by soil treatment (Table 19, symbol K); assay type: in vivo, Italian ryegrass (Lolium multiflorum)
# In short: as §2
# lambsquarters [11] = assay: Test Example 4: herbicidal effect by soil treatment (Table 19, symbol O); assay type: in vivo, lambsquarters (Chenopodium album)
# In short: as §2
# Italian ryegrass [12] = assay: Test Example 5: herbicidal effect by foliage application, plastic box (Table 20, symbol K); assay type: in vivo, Italian ryegrass (Lolium multiflorum)
# In short: as §1
# wild oat [13] = assay: Test Example 5: herbicidal effect by foliage application, plastic box (Table 20, symbol I); assay type: in vivo, wild oat (Avena fatua)
# In short: as §1
# redroot pigweed [14] = assay: Test Example 5: herbicidal effect by foliage application, plastic box (Table 20, symbol N); assay type: in vivo, redroot pigweed (Amaranthus retroflexus)
# In short: as §1
# barnyard grass [15] = assay: Test Example 3: herbicidal effect by foliage application, Wagner pot (Table 18, symbol H); assay type: in vivo, barnyard grass (Echinochloa crus-galli); conditions: 320 g/ha
# In short: (§3)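 Plants were sown in alluvial soil held under 0.1–0.5 cm standing water and grown 14 days in a greenhouse at 25–30 °C. An emulsifiable formulation, water-diluted to the set dose, was then sprayed onto the foliage, and effects were scored three weeks later using previously defined criteria.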
# Japanese bulrush = assay: Test Example 2: herbicidal activity, application during weed generation under submerged conditions (Table 17, symbol B); assay type: in vivo, Japanese bulrush (Schoenoplectus juncoides); conditions: AAH 320 g/ha; application during weed generation, submerged conditions
# In short: (§4)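 Herbicide emulsion, diluted with water to the chosen amount, is applied onto 4 cm floodwater over alluvial soil where the weeds were co-sown and raised at 25–30° C. Application timing: 1–2 leaves. Assessment: three weeks afterwards.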
# persian speedwell [16] = assay: Test Example 5: herbicidal effect by foliage application, plastic box (Table 20, symbol R); assay type: in vivo, Persian speedwell (Veronica persica)
# In short: as §1
# persian speedwell [17] = assay: Test Example 4: herbicidal effect by soil treatment (Table 19, symbol R); assay type: in vivo, Persian speedwell (Veronica persica)
# In short: as §2
# redroot pigweed [18] = assay: Test Example 4: herbicidal effect by soil treatment (Table 19, symbol N); assay type: in vivo, redroot pigweed (Amaranthus retroflexus)
# In short: as §2
# chickweed [19] = assay: Test Example 4: herbicidal effect by soil treatment (Table 19, symbol P); assay type: in vivo, common chickweed (Stellaria media)
# In short: as §2
# southern crabgrass [20] = assay: Test Example 5: herbicidal effect by foliage application, plastic box (Table 20, symbol F); assay type: in vivo, southern crabgrass (Digitaria ciliaris)
# In short: as §1
# velvetleaf [21] = assay: Test Example 5: herbicidal effect by foliage application, plastic box (Table 20, symbol M); assay type: in vivo, velvetleaf (Abutilon theophrasti); conditions: foliage application, AAH 320 g/ha, three weeks after application
# In short: as §1
# velvetleaf [22] = assay: Test Example 4: herbicidal effect by soil treatment (Table 19, symbol M); assay type: in vivo, velvetleaf (Abutilon theophrasti)
# In short: as §2
# blackgrass [23] = assay: Test Example 5: herbicidal effect by foliage application, plastic box (Table 20, symbol J); assay type: in vivo, blackgrass (Alopecurus myosuroides)
# In short: as §1
# windgrass [24] = assay: Test Example 5: herbicidal effect by foliage application, plastic box (Table 20, symbol L); assay type: in vivo, windgrass (Apera spica-venti)
# In short: as §1
# chickweed [25] = assay: Test Example 5: herbicidal effect by foliage application, plastic box (Table 20, symbol P); assay type: in vivo, common chickweed (Stellaria media)
# In short: as §1
# Chinese sprangletop = assay: Test Example 3: herbicidal effect by foliage application, Wagner pot (Table 18, symbol D); assay type: in vivo, chinese sprangletop (Leptochloa chinensis); conditions: 320 g/ha
# In short: as §3
# rice flat sedge = assay: Test Example 3: herbicidal effect by foliage application, Wagner pot (Table 18, symbol E); assay type: in vivo, rice flat sedge (Cyperus iria); conditions: 320 g/ha
# In short: as §3
# oval-leafed pondweed = assay: Test Example 2: herbicidal activity, application during weed generation under submerged conditions (Table 17, symbol C); assay type: in vivo, oval-leafed pondweed (Monochoria vaginalis); conditions: AAH 320 g/ha; application during weed generation, submerged conditions
# In short: as §4
# late watergrass = assay: Test Example 2: herbicidal activity, application during weed generation under submerged conditions (Table 17, symbol A); assay type: in vivo, late watergrass (Echinochloa oryzicola); conditions: AAH 320 g/ha; application during weed generation, submerged conditions
# In short: as §4
# [26] = foliage application, AAH 320 g/ha, three weeks after application
# [27] = 320 g/ha, foliage application after 14-day growth, evaluated three weeks after application
# [28] = amount of applied herbicide 320 g/ha
compound,measurement,setting,value
Cc1nn(C)c(=O)c(-c2c(-c3ccccc3OCC(F)(F)F)sc3ccccc23)c1O [1-118],"G: green foxtail, herbicidal effect",green foxtail [1]; [26],5 (Herbicidal rate of 90% or more (almost completely withered))
same,"F: southern crabgrass, herbicidal effect rating",southern crabgrass [2]; AAH 320 g/ha,1 (Herbicidal rate of 5% or more and less than 20%)
same,"H: barnyard grass, herbicidal effect rating",barnyard grass [3]; AAH 320 g/ha,4 (Herbicidal rate of 70% or more and less than 90%)
same,"L: windgrass, herbicidal effect rating",windgrass [4]; AAH 320 g/ha,3 (Herbicidal rate of 40% or more and less than 70%)
same,"J: blackgrass, herbicidal effect rating",blackgrass [5]; AAH 320 g/ha,3 (Herbicidal rate of 40% or more and less than 70%)
same,"I: wild oat, herbicidal effect rating",wild oat [6]; AAH 320 g/ha,3 (Herbicidal rate of 40% or more and less than 70%)
same,"H: barnyard grass, herbicidal effect",barnyard grass [7]; [26],2 (Herbicidal rate of 20% or more and less than 40%)
same,"O: lambsquarters, herbicidal effect",lambsquarters [8]; [26],3 (Herbicidal rate of 40% or more and less than 70%)
same,"G: green foxtail, herbicidal effect rating",green foxtail [9]; AAH 320 g/ha,3 (Herbicidal rate of 40% or more and less than 70%)
same,"K: Italian ryegrass, herbicidal effect rating",Italian ryegrass [10]; AAH 320 g/ha,0 (Herbicidal rate of 5% or less (almost no effect))
same,"O: lambsquarters, herbicidal effect rating",lambsquarters [11]; AAH 320 g/ha,5 (Herbicidal rate of 90% or more (almost completely withered))
same,"K: Italian ryegrass, herbicidal effect",Italian ryegrass [12]; [26],4 (Herbicidal rate of 70% or more and less than 90%)
same,"I: wild oat, herbicidal effect",wild oat [13]; [26],4 (Herbicidal rate of 70% or more and less than 90%)
same,"N: redroot pigweed, herbicidal effect",redroot pigweed [14]; [26],5 (Herbicidal rate of 90% or more (almost completely withered))
same,"herbicidal effect on H (barnyard grass), rating 0-5",barnyard grass [15],4 (Herbicidal rate of 70% or more and less than 90%)
same,"herbicidal effect rating, B: Japanese bulrush",Japanese bulrush,0 (Herbicidal rate of 5% or less (almost no effect))
same,"R: persian speedwell, herbicidal effect",persian speedwell [16]; [26],5 (Herbicidal rate of 90% or more (almost completely withered))
same,"R: persian speedwell, herbicidal effect rating",persian speedwell [17]; AAH 320 g/ha,4 (Herbicidal rate of 70% or more and less than 90%)
same,"N: redroot pigweed, herbicidal effect rating",redroot pigweed [18]; AAH 320 g/ha,5 (Herbicidal rate of 90% or more (almost completely withered))
same,"P: chickweed, herbicidal effect rating",chickweed [19]; AAH 320 g/ha,3 (Herbicidal rate of 40% or more and less than 70%)
same,"F: southern crabgrass, herbicidal effect",southern crabgrass [20]; [26],5 (Herbicidal rate of 90% or more (almost completely withered))
same,"M: velvetleaf, herbicidal effect",velvetleaf [21],5 (Herbicidal rate of 90% or more (almost completely withered))
same,"M: velvetleaf, herbicidal effect rating",velvetleaf [22]; AAH 320 g/ha,3 (Herbicidal rate of 40% or more and less than 70%)
same,"J: blackgrass, herbicidal effect",blackgrass [23]; [26],4 (Herbicidal rate of 70% or more and less than 90%)
same,"L: windgrass, herbicidal effect",windgrass [24]; [26],5 (Herbicidal rate of 90% or more (almost completely withered))
same,"P: chickweed, herbicidal effect",chickweed [25]; [26],5 (Herbicidal rate of 90% or more (almost completely withered))
same,"herbicidal effect on D (Chinese sprangletop), rating 0-5",Chinese sprangletop,2 (Herbicidal rate of 20% or more and less than 40%)
same,"herbicidal effect on E (rice flat sedge), rating 0-5",rice flat sedge,2 (Herbicidal rate of 20% or more and less than 40%)
same,"herbicidal effect rating, C: oval-leafed pondweed",oval-leafed pondweed,0 (Herbicidal rate of 5% or less (almost no effect))
same,"herbicidal effect rating, A: late watergrass",late watergrass,3 (Herbicidal rate of 40% or more and less than 70%)
CCCC(=O)Oc1c(C)nn(C)c(=O)c1-c1c(-c2ccccc2OC)sc2c(Cl)cccc12 [4-022],herbicidal effect on G: green foxtail (evaluation grade 0-5),green foxtail [1]; [27],2 (Herbicidal rate of 20% or more and less than 40%)
same,"Herbicidal effect by soil treatment, F: southern crabgrass",southern crabgrass [2]; [28],3 (Herbicidal rate of 40% or more and less than 70%)
same,"Herbicidal effect by soil treatment, H: barnyard grass",barnyard grass [3]; [28],3 (Herbicidal rate of 40% or more and less than 70%)
same,"Herbicidal effect by soil treatment, L: windgrass",windgrass [4]; [28],0 (Herbicidal rate of 5% or less (almost no effect))
same,"Herbicidal effect by soil treatment, J: blackgrass",blackgrass [5]; [28],0 (Herbicidal rate of 5% or less (almost no effect))
same,"Herbicidal effect by soil treatment, I: wild oat",wild oat [6]; [28],0 (Herbicidal rate of 5% or less (almost no effect))
same,herbicidal effect on H: barnyard grass (evaluation grade 0-5),barnyard grass [7]; [27],4 (Herbicidal rate of 70% or more and less than 90%)
same,herbicidal effect on O: lambsquarters (evaluation grade 0-5),lambsquarters [8]; [27],0 (Herbicidal rate of 5% or less (almost no effect))
same,"Herbicidal effect by soil treatment, G: green foxtail",green foxtail [9]; [28],3 (Herbicidal rate of 40% or more and less than 70%)
same,"Herbicidal effect by soil treatment, K: Italian ryegrass",Italian ryegrass [10]; [28],0 (Herbicidal rate of 5% or less (almost no effect))
same,"Herbicidal effect by soil treatment, O: lambsquarters",lambsquarters [11]; [28],2 (Herbicidal rate of 20% or more and less than 40%)
same,herbicidal effect on K: Italian ryegrass (evaluation grade 0-5),Italian ryegrass [12]; [27],1 (Herbicidal rate of 5% or more and less than 20%)
same,herbicidal effect on I: wild oat (evaluation grade 0-5),wild oat [13]; [27],0 (Herbicidal rate of 5% or less (almost no effect))
same,herbicidal effect on N: redroot pigweed (evaluation grade 0-5),redroot pigweed [14]; [27],3 (Herbicidal rate of 40% or more and less than 70%)
same,herbicidal effect on barnyard grass (H),barnyard grass [15],5 (Herbicidal rate of 90% or more (almost completely withered))
same,"herbicidal effect rating, B: Japanese bulrush",Japanese bulrush,2 (Herbicidal rate of 20% or more and less than 40%)
same,herbicidal effect on R: persian speedwell (evaluation grade 0-5),persian speedwell [16]; [27],3 (Herbicidal rate of 40% or more and less than 70%)
same,"Herbicidal effect by soil treatment, R: persian speedwell",persian speedwell [17]; [28],0 (Herbicidal rate of 5% or less (almost no effect))
same,"Herbicidal effect by soil treatment, N: redroot pigweed",redroot pigweed [18]; [28],3 (Herbicidal rate of 40% or more and less than 70%)
same,"Herbicidal effect by soil treatment, P: chickweed",chickweed [19]; [28],1 (Herbicidal rate of 5% or more and less than 20%)
same,herbicidal effect on F: southern crabgrass (evaluation grade 0-5),southern crabgrass [20]; [27],0 (Herbicidal rate of 5% or less (almost no effect))
same,"Herbicidal effect by soil treatment, M: velvetleaf",velvetleaf [22]; [28],0 (Herbicidal rate of 5% or less (almost no effect))
same,herbicidal effect on J: blackgrass (evaluation grade 0-5),blackgrass [23]; [27],0 (Herbicidal rate of 5% or less (almost no effect))
same,herbicidal effect on L: windgrass (evaluation grade 0-5),windgrass [24]; [27],5 (Herbicidal rate of 90% or more (almost completely withered))
same,herbicidal effect on P: chickweed (evaluation grade 0-5),chickweed [25]; [27],5 (Herbicidal rate of 90% or more (almost completely withered))
same,herbicidal effect on Chinese sprangletop (D),Chinese sprangletop,5 (Herbicidal rate of 90% or more (almost completely withered))
same,herbicidal effect on rice flat sedge (E),rice flat sedge,4 (Herbicidal rate of 70% or more and less than 90%)
same,"herbicidal effect rating, C: oval-leafed pondweed",oval-leafed pondweed,0 (Herbicidal rate of 5% or less (almost no effect))
same,"herbicidal effect rating, A: late watergrass",late watergrass,0 (Herbicidal rate of 5% or less (almost no effect))
